Results: patent publication US12440528B2, “Methods of treating ovarian cancer with hemp extract” (Ecofibre USA Inc., priority 2021, dated 2025)

Experiments:
[1] = test system: patient derived organoids (PD3D Cell Culture); experiment: Calculated IC50 in PD3D cell culture of the patient derived organoids; format: cell-based, human
[2] = cells without a printed unit; cited from earlier work

For `CCCCCOC(=O)Nc1nc(=O)n([C@@H]2O[C@H](C)[C@@H](O)[C@H]2O)cc1F` [Capecitabine (5-FU), Capecitabine], the “Calculated IC50 PD3D Cell Culture” value [1] is listed as “Not Reached” and the Cmax [2] is listed as 2220 nM.
